Source: US8148508 (dated 2012)

Legend:
[1] = test system: clostripain; assay: 10 mM Tris, 1 mM EDTA, 5 mM CaCl2 (pH 8.0), varying clostripain ratios; conditions: 21° C.; also 40° C., up to 10 hr
[2] = test system: clostripain; assay: cell free extract containing T7tag-GSDR-[GLP-2(1-34)]6 precursor, pH 6.4 NaH2PO4, 1 mM CaCl2, 1 mM DTT; conditions: 25° C., up to approximately 3 hours
[3] = test system: clostripain; assay: clostripain digestion under different pH conditions
[4] = test system: recombinant clostripain; assay: cell free extract with 0.2 units of recombinant clostripain per mg precursor polypeptide; conditions: up to up to 3 hours
[5] = test system: clostripain; assay: 50 mM HEPES buffer (pH 6.7), 1 mM CaCl2, 1 mM cysteine, 4.8 M urea, 10, 20 and 35% ethanol; conditions: 25° C., up to 30 minutes

Row | fragment found [1] | fragment found [2] | fragment found [3] | fragment found [4] | fragment found [5] | Sequence
1 | truncated GLP-2(21-34) | GLP-2 fragment (21-34) | – | – | – | HADGSFSDEMNTILDNLAARDFINWLIQTKITDR
2 | – | – | GLP-2(21-33) | GLP-2 fragment (21-33) | GLP-2(21-33) | HGDGSFSDEMNTILDNLAARDFINWLIQTKITD
